Patent publication US20220281848A1, “PYRAZOLE-SUBSTITUTED PYRROLIDINONES AS HERBICIDES” (FMC Corporation, priority 2019, published 2022)

System: large (Lg) crabgrass (Digitaria sanguinalis)
Assay: Test C preemergence, large crabgrass
Assay type: in vivo
Conditions: 19 to 21 days
Description: Seeds of plant species selected from corn (Zea mays), soybean (Glycine max), velvetleaf (Abutilon theophrasti), palmer pigweed (Amaranthus palmeri), waterhemp (common waterhemp, Amaranthus rudis), surinam grass (Brachiaria decumbens), large (Lg) crabgrass (Digitaria sanguinalis), fall panicum (Panicum dichotomiflorum), giant foxtail (Setaria faberi), ragweed (common ragweed, Ambrosia elatior), barnyardgrass (Echinochloa crus-galli), E. Black Nightshade (Solanum ptycanthum), and horseweed (Conyza canadensis), were planted into a silt loam soil and treated preemergence with test chemicals formulated in a non-phytotoxic solvent mixture which included a surfactant.
Treated plants and controls were maintained in a greenhouse for 19 to 21 days, after which time all species were compared to controls and visually evaluated. Plant response ratings, summarized in Table C, are based on a scale of 0 to 100 where 0 is no effect and 100 is complete control.

## CN1C[C@H](c2cc(C(F)(F)F)n(C)n2)[C@@H](C(=O)Nc2cccc(F)c2F)C1=O [Compound 13, (3S,4R)—N-(2,3-difluorophenyl)-1-methyl-4-[1-methyl-5-(trifluoromethyl)-1H-pyrazol-3-yl]-2-oxo-3-pyrrolidinecarboxamide]
4 g ai/ha Preemergence
  Plant response rating (0 no effect, 100 complete control) Crabgrass, Large: 70
8 g ai/ha Preemergence
  Plant response rating (0 no effect, 100 complete control) Crabgrass, Large: 89
16 g ai/ha Preemergence
  Plant response rating (0 no effect, 100 complete control) Crabgrass, Large: 98
31 g ai/ha Preemergence
  Plant response rating (0 no effect, 100 complete control) Crabgrass, Large: 98
62 g ai/ha Preemergence
  Plant response rating (0 no effect, 100 complete control) Crabgrass, Large: 98
125 g ai/ha Preemergence
  Plant response rating (0 no effect, 100 complete control) Crabgrass, Large: 98
